From patent US10273279B2, “Protease activated receptor-1 (PAR1) derived cytoprotective polypeptides and related methods” (THE SCRIPPS RESEARCH INSTITUTE, priority 2011, dated 2019) come the findings set out here.

Positions count from the first letter of the chain named. “Also recorded” adds a separate entry of the source.

In assay [1] the test system is Rac1 in endothelial EA.hy.926 cells. In words: Rac1 activation (GST-PAK1 pull down of active GTP-Rac1). It counts as cell-based, human. As to conditions: peptides 50 μM, 30 or 180 min. As to the method:
Some assays employed in this study were performed as follow. Rac1 activation. The pGEXTK-PAK1 70-117 construct encoding a GST fusion to p21-activated kinase (PAK-1)-binding domain (PBD) was kindly made available by Dr. J Chernoff (Addgene plasmid 12217). GST-PAK1 was purified from transformed BL21 (DE3) Escherichia coli using B-Per lysis buffer (Pierce) with lysozyme, DNAse 1 and Halt EDTA-free protease inhibitor cocktail (Pierce) on Glutathione-agarose according to the manufacturer's recommendation. Pull down of active Rac1 was performed as described in Pellegrin et al., Curr. Protoc. Cell Biol. 2008; Chapter 14:Unit 14.8. Briefly, endothelial EA.hy.926 cells (5*10^6 per plate) were grown in 100-mm dishes for 48 hr and serum starved overnight before addition of peptides (50 μM) for 30 or 180 min. Lysates (2 mg) were mixed with GST-PAK1 Glutathione-agarose (150 μg) and after washing active GTP-Rac1 was eluted from GST-PAK1 Glutathione-agarose by boiling in reducing SDS sample buffer (LI-COR). Active GTP-Rac1 was resolved on 12% SDS PAGE, transferred to Immobilon-FL PVDF membrane, and immunoblotted with a mouse anti-Rac1 antibody (BD Bioscience) and IRDye 800CW donkey anti-mouse secondary antibodies (LI-COR). Immunoblots were scanned on the Odyssey Imager (LI-COR). Quantification of integrated fluorescence intensity (K counts) was done using Odyssey Application Software v3.0 (LI-COR).

For assay [2], the target named is T1, SEAP-PAR1 (Homo sapiens, UniProt P25116, R41Q).
T1 construct: we created a full-length PAR-1 construct linked at the N-terminus to an alkaline phosphatase reporter group (SEAP); expressed in transfected cells
T1 sequence (P25116 22-425 R41Q): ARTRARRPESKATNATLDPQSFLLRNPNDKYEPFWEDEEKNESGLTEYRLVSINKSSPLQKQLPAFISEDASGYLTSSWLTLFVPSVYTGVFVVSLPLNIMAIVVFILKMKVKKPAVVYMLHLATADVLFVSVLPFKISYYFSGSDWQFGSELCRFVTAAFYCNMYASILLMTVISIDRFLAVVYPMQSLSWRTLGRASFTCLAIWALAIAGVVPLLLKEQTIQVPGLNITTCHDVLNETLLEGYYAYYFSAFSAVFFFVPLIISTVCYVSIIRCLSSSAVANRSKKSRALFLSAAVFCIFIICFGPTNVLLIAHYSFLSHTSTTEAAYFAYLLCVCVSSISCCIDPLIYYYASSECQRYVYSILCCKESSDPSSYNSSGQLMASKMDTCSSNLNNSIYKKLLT
Kind of assay: SEAP-PAR1 cleavage reporter on transfected HEK-293 cells (SEAP release). The class given is cell-based. As to conditions: in the presence of EPCR. The source says: (§1) To facilitate analysis of APC-mediated PAR-1 activation, we created a full-length PAR-1 construct linked at the N-terminus to an alkaline phosphatase reporter group (SEAP). Selection of stable cell lines expressing both endothelial protein C receptor (EPCR) (wt or E86A) and SEAP-PAR1 allowed for a reliable and reproducible analysis of EPCR-dependent PAR-1 activation by APC. Mass-spec analysis of cleavage fragments generated by APC of a synthetic PAR-1 N-terminal tail peptide (TR33-62) identified both Arg^41 and Arg^46 as potential cleavage sites for APC proteolysis, as noted above. […] R41Q-SEAP-PAR1 was cleaved by APC in the presence of EPCR. This surprising result was also obtained for R41A-SEAP PAR1.
(§2) 2009; 113:5970-5978. SEAP-PAR1, either in the presence or absence of wt-EPCR, were transfected into HEK-293 cells to obtain stable cells expressing SEAP-PAR1 or wt-EPCR/SEAP-PAR1. Mutations in SEAP-PAR1 were introduced using the Quickchange method (Agilent). Cells were grown in 96-wells plates to confluency in Dulbeco's modified Eagle media (DMEM): Ham's F-12 (Invitrogen) supplemented with penicillin-streptomycin-glutamine (PSG) (Gibco) and 10% fetal bovine serum (Omega) in a humidified atmosphere at 37° C. and 5% CO2 Cells were washed with Hank's balanced salt solution (HBSS; Invitrogen) supplemented with 1.3 mM CaCl2, 0.6 mM MgCl2 and 0.1% endotoxin free BSA (Calbiochem) and incubated with APC. After 60 min, SEAP release was determined using 1-step PNPP (Pierce). Values were corrected for background activity derived from the same cells incubated in the absence of APC and expressed as a percentage of total SEAP available on the cell membrane.

In assay [3] the test system is SEAP-PAR1. Described as above. The class given is cell-based, human. To be noted: in the absence of EPCR.
From the text: as §1, §2

The target in assay [4] is T2, SEAP-PAR1 (Homo sapiens, UniProt P25116, R41A).
T2 construct: we created a full-length PAR-1 construct linked at the N-terminus to an alkaline phosphatase reporter group (SEAP); expressed in transfected cells
T2 sequence (P25116 22-425 R41A): T1 sequence (P25116 22-425 R41Q) with Q20A
The description is as above. It counts as cell-based. To be noted: in the absence of EPCR.
From the text: as §1, §2

For assay [5], the target named is T3, SEAP-PAR1 (Homo sapiens, UniProt P25116, R41Q/R46Q).
T3 construct: we created a full-length PAR-1 construct linked at the N-terminus to an alkaline phosphatase reporter group (SEAP); expressed in transfected cells
T3 sequence (P25116 22-425 R41Q/R46Q): T1 sequence (P25116 22-425 R41Q) with R25Q
The assay is described as above. It counts as cell-based. To be noted: cells with wt-EPCR.
From the text: as §1, §2

In the case of “NPNDKYEPFWEDEEKNESGL (listed as Homo sapiens) [TR47-66]”, the “activation of Rac1” value in assay [1] was “induced APC-like activation of Rac1”. For the substance thrombin, at SEAP-PAR1 [2], the “cleavage of R41Q-SEAP-PAR1” value is on record as “did not show any cleavage”. For “APC: Activated Protein C, serine protease with anticoagulant and cytoprotective cell signaling activities”, the “cleavage of wt-SEAP-PAR1 and R46Q-SEAP-PAR1” value with SEAP-PAR1 [3] was “did cleave”. The “cleavage of R41A-SEAP-PAR1” value with SEAP-PAR1 [4] is given as “did not cleave”. In addition, the “cleavage of R41Q/R46Q-SEAP-PAR1” value in the assay with SEAP-PAR1 [5] is reported as “eliminated PAR-1 cleavage; also recorded: negligible”.
